Data as given in patent publication US20120276064A1, “METHODS AND COMPOSITIONS FOR REJUVENATION AND EXPANSION OF STEM CELLS” (priority 2011, published 2012).

Tests used:
[1] = tested on: old MuSCs transplanted into notexin-injured old muscle; assay: Syngeneic transplantation of cultured old MuSC progeny into notexin-injured old C57BL/6 muscles, engraftment; assay type: in vivo, mouse
Protocol: MuSC transplantation. MuSCs were transplanted immediately following FACS isolation or after collection from cell culture directly into the tibialis anterior muscle of recipient mice as previously described. Cells from GFP/Luciferase or Myf5^nLacZl+/Luciferase mice were transplanted into gender-matched, hindlimb-irradiated NOD/SCID (Jackson) mice. NOD/SCID (2-4 months of age, median 2 months) mice were anesthetized with ketamine (2.4 mg per mouse) and xylazine (240 μg per mouse) by intraperitoneal injection then were irradiated by a single dose of 18 Gy administered to the hindlimbs, with the rest of the body shielded in a lead jig. Transplantation was performed within three days post-irradiation. […] Freshly isolated or cultured cells were counted by hemocytometer and resuspended at desired cell concentrations in PBS with 2.5% goat serum and 1 mM EDTA. Cells were collected from hydrogel cultures by incubation with 0.5% trypsin in PBS for 2 min at 37° C. and counted using a hemocytometer. […]
Bioluminescence imaging. […] Digital images were recorded and analyzed using Living Image software (Caliper LifeSciences). Images were analyzed with a consistent region-of-interest (ROI) placed over each hindlimb to calculate a bioluminescence signal. […]

[2] = tested on: tibialis anterior muscle of notexin-injured old mice; assay: In vivo force measurements after transplantation of cultured old MuSC progeny; set-up: species or system mouse; settings: injured old muscles transplanted with progeny of SB-treated old MuSCs; two months post-injury
[3] = tested on: p21, Myogenin, Pax7 transcripts in MuSCs; assay: Quantitative real-time PCR gene expression in hydrogel-cultured MuSCs; assay type: cell-based, mouse; settings: old MuSCs, soft hydrogel, 10 μM, one week
Protocol: MuSC culture and treatment. Following isolation, MuSCs were pelleted and resuspended into myogenic cell culture medium containing DMEM/F10 (50:50), 15% FBS, 2.5 ng/ml bFGF, and 1% penicillin/streptomycin. MuSCs were seeded at 1000 cells per well (24-well plate size wells, 2.0 cm^2 surface area) on laminin-tethered hydrogels of either 12 kPa (soft) or ˜10^6 kPa (rigid) rigidities. Cells were maintained at 37° C. in 5% CO2. Media was changed daily. For proliferation and p38 inhibition studies, the following ligands/inhibitors were supplemented in the myogenic medium and maintained consistently through the experiment: 25 ng/ml Wnt7a (R&D Systems, Minneapolis, Minn.), 25 ng/ml Jagged1-Fc (R&D Systems, Minneapolis, Minn.), 10 nM tautomycetin (PP1 inhibitor; Tocris Bioscience, Ellisville, Mo.), 10 μM SB202190 or 10 μM SB203580 (p38 inhibitors; EMD Chemicals, Gibbstown, N.J.), 1 μM SB431542 (ALK4/5/7 inhibitor; Tocris Bioscience), or 0.1% DMSO carrier control. All MuSC cell culture assays and transplantations were performed after one week of culture unless noted otherwise.
Quantitative real-time PCR. RNA was isolated from freshly isolated and cultured cells using the RNeasy Micro kit (Qiagen, Valencia, Calif.). Total RNA from each sample was reverse transcribed using the High Capacity cDNA RT kit (Applied Biosystems, Carlsbad, Calif.). cDNA was subjected to real-time PCR using a SYBR Green PCR Master Mix (Applied Biosystems). Real-time PCR was performed using an ABI 7900HT Real Time PCR system and software (Applied Biosystems). Samples were cycled at 95° C. for 10 min and then 40 cycles of 95° C. for 15 sec and 60° C. for 1 min. To quantify relative transcript levels, the 2^−ΔΔCt method was used, and freshly isolated young MuSCs were used as reference value (plotted as 1 in all graphs). Gapdh was used as a normalizing gene. Primer sequences for Gapdh, p21, myogenin, and Pax7 were obtained from literature or using NIH Primer3.

Oc1ccc(-c2nc(-c3ccncc3)c(-c3ccc(F)cc3)[nH]2)cc1 [SB202190]
Contribution to myofibers (histology) ([1]; progeny of 100 SB-treated old MuSCs, old recipient muscle, two months after transplantation): substantial contribution to myofibers
Engraftment frequency in aged syngeneic recipient muscle ([1]; progeny of 100 old MuSCs cultured with 10 μM SB, notexin-injured old C57BL/6 mice, one month): 88%
Specific tetanus force versus pre-injury levels [2]: restored
Specific twitch force versus pre-injury levels [2]: exceeded
Transcription of the MuSC transcription factor Pax7 [3]: increased
Transcription of the cell cycle inhibitor p21 [3]: decreased
Transcription of the commitment marker Myogenin [3]: decreased
